In US20210386722A1, “Treatment of Covid-19 with Nitroxides” (priority 2021, published 2021):

Experiments:
[1] = test system: SARS-COV-2; settings: in vivo; cited from earlier work
[2] = test system: SARS-COV-2; assay: Treatment of a patient with presumptive Covid-19 (case report); assay type: in vivo, human
Source text: A septuagenarian person experienced sudden frightening onset of severe headache, marked nausea and vomiting, pharyngitis, severe upper respiratory congestion, fever, chills, myalgia, weakness, malaise, and mild to moderate pulmonary congestion. O2 saturation=96%. Patient had been taking Tempol off-and-on for years for cancer prophylaxis and for its possible antiaging activity, as well as some miscellaneous actions such as treatment of periodontitis and osteoarthritis. But, concerned that it would interfere with their activity, they had stopped Tempol about 6 weeks before receiving influenza (Fluvax) and Zoster (Zostavax) immunizations. The presumptive-diagnosis was “Covid-19”, possibly from a medically-related exposure.
Treatment: Nausea and vomiting continued without respite for several hours. Anti-nausea tablets were twice regurgitated intact. Accordingly, treatment was initiated with 30 mg of Tempol PO as the hydroxylamine in a 6% water solution containing 90 mg vitamin-C. Patient kept this down. Along with Tempol-zinc gargles for pharyngitis, intranasal treatment was then initiated with a medication-soaked cotton swab and insufflation, repeated approximately q 6 h as symptoms returned. This was followed by similar doses of Tempol-H three and six hours later, repeated 2-3 times a day, PO for the next ten days. Subsequent intranasal treatment was also repeated 1-3 times a day for 10 days, as needed, titrating to relief of oropharyngeal symptoms as they recurred. On days 2-3, treatment was briefly initiated with hydroxychloroquine, zinc, doxycycline, ivermectin, and famotidine, then withdrawn.

[3] = test system: SARS-COV-2; assay: Person on Tempol heavily exposed to patient 1; assay type: in vivo, human; settings: Tempol 60 mg/day
Source text: By days 5-7 remaining symptoms were mild reversible-on-treatment nasal congestion, pharyngitis, and malaise. […] PCR for SARS-COV-2 RNA was negative at day 10. While not surprising considering the clinical course, in retrospect, this may have signified some direct antiviral effect of the application of Tempol directly to the upper respiratory mucosa and oropharynx by insufflation, inhalation, or gargling. […] After patient discontinued treatment for several weeks, subsequent putative recurrent post-acute symptoms of Covid-19 such as malaise, myalgia, and shortness of breath appeared.

[4] = biological target: T1, SARS-COV-2 replicase (RNA-Dependent RNA polymerase) (Severe acute respiratory syndrome coronavirus 2, UniProt P0DTD1); settings: by oxidizing iron-sulfur centers; cited from earlier work
T1 construct: SARS-COV-2 replicase (RNA-Dependent RNA polymerase)

[5] = test system: SARS-COV-2; settings: potentially physiological Tempol concentrations; cited from earlier work
[6] = test system: nonrespiratory coronavirus; settings: mouse, in vivo; cited from earlier work

## CCC(CC)COC(=O)[C@H](C)N[P@](=O)(OC[C@H]1O[C@@](C#N)(c2ccc3c(N)ncnn23)[C@H](O)[C@@H]1O)Oc1ccccc1 [Remdisivir]
[1]
  efficacy of systemic treatment of Covid-19: ineffective or only marginally-effective

## CCN(CCO)CCCC(C)Nc1ccnc2cc(Cl)ccc12 (centres unmarked) [hydroxychloroquine]
[1]
  efficacy of systemic treatment of Covid-19: ineffective or only marginally-effective

## CC1(C)CC(O)CC(C)(C)N1[O] [Tempol, 4-hydroxy-TEMPO]
[2]; day 10
  PCR for SARS-COV-2 RNA: negative
[2]; days 8-9, excepting slight malaise
  overall symptoms: essentially asymptomatic
[2]; further treatment as above plus lung inhalation of 0.1 ml of 6% Tempol or Tempol-H solution
  recurrent post-acute symptoms of Covid-19 (malaise, myalgia, shortness of breath): responded reversibly
[2]; same doses as Tempol-H
  efficacy of Tempol itself (non-reduced form): effective at the same doses
[3]
  development of coronavirus disease after heavy exposure: did not develop clinically-significant coronavirus disease
[4]
  effect on replicase enzyme: inactivates this key enzyme
[5]
  viral replication in vitro: markedly inhibits viral replication
[6]
  murine viral encephalomyelitis: ameliorates

## CC1(C)CC(O)CC(C)(C)N1O [Tempol-H]
[2]; after initiation of treatment
  pulmonary congestion: cleared somewhat
[2]; repeated intranasal treatment (soaked cotton swab and insufflation)
  nasal congestion: quickly reversibly-eased
[2]; that night and several subsequent ones
  events experienced by the patient during treatment: “vivid dreaming”
[2]; within one to two hours of initiation of treatment
  headache: eased significantly
